PubChem BioAssay (NCI)
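A five-concentration, 48-hour dose response in 96-well plates underlies each endpoint, interpolated linearly between surrounding concentrations. Definition used: TGI = concentration required for complete inhibition of growth.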

Experiments:
Assay in all cases: NCI-60 cell line screen, 48 h
[1] = system: NCI-H522 lung
[2] = system: HT29 colon
[3] = system: EKVX NSCLC
[4] = system: A549 NSCLC
[5] = system: MDA-N
[6] = system: UACC-257 melanoma
[7] = system: MDA-MB-435
[8] = system: SK-MEL-5 melanoma
[9] = system: SK-MEL-2 melanoma
[10] = system: HL-60(TB) leukemia
[11] = system: MDA-MB-231 breast
[12] = system: SF-268 CNS
[13] = system: SF-295 CNS
[14] = system: HCT-116 colon
[15] = system: K-562 leukemia
[16] = system: U251 CNS
[17] = system: HS 578T breast
[18] = system: MOLT-4 leukemia
[19] = system: COLO 205 colon
[20] = system: DU-145 prostate
[21] = system: SF-539 CNS
[22] = system: NCI-H460 lung
[23] = system: CAKI-1 renal
[24] = system: SNB-75 CNS
[25] = system: A498 renal
[26] = system: UACC-62 melanoma
[27] = system: PC-3 prostate
[28] = system: NCI/ADR-RES ovarian
[29] = system: NCI-H23 lung
[30] = system: SW-620 colon
[31] = system: MALME-3M melanoma
[32] = system: KM12 colon
[33] = system: TK-10 renal
[34] = system: SK-OV-3 ovarian
[35] = system: SR leukemia
[36] = system: IGROV1 ovarian
[37] = system: M14 melanoma
[38] = system: UO-31 renal
[39] = system: CCRF-CEM leukemia
[40] = system: OVCAR-8 ovarian
[41] = system: HCT-15 colon
[42] = system: BT-549 breast
[43] = system: RXF 393 renal
[44] = system: OVCAR-5 ovarian
[45] = system: SNB-19 CNS
[46] = system: ACHN renal
[47] = system: OVCAR-4 ovarian
[48] = system: 786-0 renal
[49] = system: T-47D breast
[50] = system: NCI-H226 lung
[51] = system: SN12C renal
[52] = system: RPMI-8226 leukemia

Measured: TGI

CCCC(CCN)(CCN)[N+](=O)[O-]
> 100 µM: all assays above
